Laboratory results: the supplement of paper PMC10307832

Tests used:
Experiment in all cases: relative viability (nuclei count vs DMSO), 5 days (fraction); higher = more cells survive
SK-MES-1 = test system: SK-MES-1
In short: (§1)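 Values are medians from duplicate plates. Each reflects relative viability, defined as the nuclei count of treated wells over that of vehicle wells. Lung cancer cell lines in 1536-well plates were pin-tool dosed one day after seeding with one drug alone or with a fixed anchor-drug dose plus five library-drug doses (not always all listed) in √10 steps, then fixed, stained and imaged at 4× after 5 days.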

NCI-H1734 = test system: NCI-H1734
In short: as §1

HCC-827 = test system: HCC-827
In short: as §1

NCI-H2009 = test system: NCI-H2009
In short: as §1

LOU-NH91 = test system: LOU-NH91
In short: as §1

HARA = test system: HARA
In short: as §1

NCI-H1395 = test system: NCI-H1395
In short: as §1

BEN = test system: BEN
In short: as §1

NCI-H661 = test system: NCI-H661
In short: as §1

NCI-H2405 = test system: NCI-H2405
In short: as §1

NCI-H1993 = test system: NCI-H1993
In short: as §1

NCI-H2170 = test system: NCI-H2170
In short: as §1

SK-LU-1 = test system: SK-LU-1
In short: as §1

NCI-H1437 = test system: NCI-H1437
In short: as §1

NCI-H2087 = test system: NCI-H2087
In short: as §1

NCI-H647 = test system: NCI-H647
In short: as §1

NCI-H1792 = test system: NCI-H1792
In short: as §1

EKVX = test system: EKVX
In short: as §1

NCI-H1355 = test system: NCI-H1355
In short: as §1

HCC-366 = test system: HCC-366
In short: as §1

Question: Which results are given for `O=c1cc(-c2cccc3c2Sc2ccccc2S3)oc(N2CCOCC2)c1` + CS(=O)(=O)N1CCN(Cc2cc3nc(-c4cccc5[nH]ncc45)nc(N4CCOCC4)c3s2)CC1 [Pictilisib] (partner 1 µM)?
Answer: relative viability (SK-MES-1; first compound 0.08 µM): 0.373; relative viability (SK-MES-1; first compound 0.253 µM): 0.396; relative viability (SK-MES-1; first compound 0.8 µM): 0.338; relative viability (SK-MES-1; first compound 2.53 µM): 0.407; relative viability (SK-MES-1; first compound 8 µM): 0.474; relative viability (NCI-H1734; first compound 0.08 µM): 0.443; relative viability (NCI-H1734; first compound 0.253 µM): 0.564; relative viability (NCI-H1734; first compound 0.8 µM): 0.465; relative viability (NCI-H1734; first compound 2.53 µM): 0.351; relative viability (NCI-H1734; first compound 8 µM): 0.578; relative viability (HCC-827; first compound 0.08 µM): 0.945; relative viability (HCC-827; first compound 0.253 µM): 1.13; relative viability (HCC-827; first compound 0.8 µM): 1.12; relative viability (HCC-827; first compound 2.53 µM): 0.743; relative viability (HCC-827; first compound 8 µM): 1.1; relative viability (NCI-H2009; first compound 0.08 µM): 0.813; relative viability (NCI-H2009; first compound 0.253 µM): 0.962; relative viability (NCI-H2009; first compound 0.8 µM): 0.968; relative viability (NCI-H2009; first compound 2.53 µM): 0.728; relative viability (NCI-H2009; first compound 8 µM): 0.745; relative viability (LOU-NH91; first compound 0.08 µM): 0.519; relative viability (LOU-NH91; first compound 0.253 µM): 0.542; relative viability (LOU-NH91; first compound 0.8 µM): 0.438; relative viability (LOU-NH91; first compound 2.53 µM): 0.504; relative viability (LOU-NH91; first compound 8 µM): 0.531; relative viability (HARA; first compound 0.08 µM): 0.368; relative viability (HARA; first compound 0.253 µM): 0.378; relative viability (HARA; first compound 0.8 µM): 0.419; relative viability (HARA; first compound 2.53 µM): 0.384; relative viability (HARA; first compound 8 µM): 0.627; relative viability (NCI-H1395; first compound 0.08 µM): 0.634; relative viability (NCI-H1395; first compound 0.253 µM): 0.602; relative viability (NCI-H1395; first compound 0.8 µM): 0.534; relative viability (NCI-H1395; first compound 2.53 µM): 0.579; relative viability (NCI-H1395; first compound 8 µM): 1.05; relative viability (BEN; first compound 0.08 µM): 0.533; relative viability (BEN; first compound 0.253 µM): 0.671; relative viability (BEN; first compound 0.8 µM): 0.531; relative viability (BEN; first compound 2.53 µM): 0.591; relative viability (BEN; first compound 8 µM): 0.686; relative viability (NCI-H661; first compound 0.08 µM): 0.352; relative viability (NCI-H661; first compound 0.253 µM): 0.394; relative viability (NCI-H661; first compound 0.8 µM): 0.404; relative viability (NCI-H661; first compound 2.53 µM): 0.35; relative viability (NCI-H661; first compound 8 µM): 0.446; relative viability (NCI-H2405; first compound 0.08 µM): 0.454; relative viability (NCI-H2405; first compound 0.253 µM): 0.386; relative viability (NCI-H2405; first compound 0.8 µM): 0.333; relative viability (NCI-H2405; first compound 2.53 µM): 0.491; relative viability (NCI-H2405; first compound 8 µM): 0.492; relative viability (NCI-H1993; first compound 0.08 µM): 0.942; relative viability (NCI-H1993; first compound 0.253 µM): 0.759; relative viability (NCI-H1993; first compound 0.8 µM): 0.894; relative viability (NCI-H1993; first compound 2.53 µM): 0.846; relative viability (NCI-H1993; first compound 8 µM): 0.805; relative viability (NCI-H2170; first compound 0.08 µM): 0.31; relative viability (NCI-H2170; first compound 0.253 µM): 0.342; relative viability (NCI-H2170; first compound 0.8 µM): 0.312; relative viability (NCI-H2170; first compound 2.53 µM): 0.287; relative viability (NCI-H2170; first compound 8 µM): 0.275; relative viability (SK-LU-1; first compound 0.08 µM): 0.616; relative viability (SK-LU-1; first compound 0.253 µM): 0.515; relative viability (SK-LU-1; first compound 0.8 µM): 0.594; relative viability (SK-LU-1; first compound 2.53 µM): 0.541; relative viability (SK-LU-1; first compound 8 µM): 0.596; relative viability (NCI-H1437; first compound 0.08 µM): 0.464; relative viability (NCI-H1437; first compound 0.253 µM): 0.534; relative viability (NCI-H1437; first compound 0.8 µM): 0.395; relative viability (NCI-H1437; first compound 2.53 µM): 0.373; relative viability (NCI-H1437; first compound 8 µM): 0.37; relative viability (NCI-H2087; first compound 0.08 µM): 0.954; relative viability (NCI-H2087; first compound 0.253 µM): 1.15; relative viability (NCI-H2087; first compound 0.8 µM): 0.931; relative viability (NCI-H2087; first compound 2.53 µM): 0.87; relative viability (NCI-H2087; first compound 8 µM): 0.973; relative viability (NCI-H647; first compound 0.08 µM): 0.341; relative viability (NCI-H647; first compound 0.253 µM): 0.499; relative viability (NCI-H647; first compound 0.8 µM): 0.365; relative viability (NCI-H647; first compound 8 µM): 0.603; relative viability (NCI-H1792; first compound 0.253 µM): 0.257; relative viability (NCI-H1792; first compound 0.8 µM): 0.223; relative viability (NCI-H1792; first compound 2.53 µM): 0.277; relative viability (NCI-H1792; first compound 8 µM): 0.238; relative viability (EKVX; first compound 0.08 µM): 0.418; relative viability (EKVX; first compound 0.253 µM): 0.521; relative viability (EKVX; first compound 0.8 µM): 0.286; relative viability (EKVX; first compound 2.53 µM): 0.439; relative viability (EKVX; first compound 8 µM): 0.47; relative viability (NCI-H1355; first compound 0.08 µM): 0.457; relative viability (NCI-H1355; first compound 0.253 µM): 0.456; relative viability (NCI-H1355; first compound 0.8 µM): 0.362; relative viability (NCI-H1355; first compound 2.53 µM): 0.405; relative viability (NCI-H1355; first compound 8 µM): 0.344; relative viability (HCC-366; first compound 0.08 µM): 0.138; relative viability (HCC-366; first compound 0.253 µM): 0.129; relative viability (HCC-366; first compound 0.8 µM): 0.114; relative viability (HCC-366; first compound 2.53 µM): 0.122; relative viability (HCC-366; first compound 8 µM): 0.158
